Measurements published in US7956039B2, “Use of amygdalin analogues for the treatment of psoriasis” (Universitat Politècnica De Catalunya, priority 2004, dated 2011).

Assays:
Blood mononuclear cells = assay: Monocyte chemotaxis assay in modified Boyden chamber; type: cell-based, human; conditions: for −log[A] (concentration of maximum chemotactic index): concentration [A] at which the maximum chemotactic index occurs; for Chemotactic index (maximum value): ratio of migration distance towards attractant to distance towards buffer, tested 10^−12 to 10^−7 mol/L
Procedure: Activity of Compounds (I) in Monocyte Chemotaxis Assays
Blood mononuclear cells were isolated from heparinized blood of human volunteers by Ficoll sedimentation. Chemotaxis was measured in a modified Boyden chamber using a Millipore […] that divided the upper and lower compartments. Mononuclear cells (0.5×10^6) in Krebs-Ringer phosphate (KRP) buffer were placed into the upper wells. Compounds (I) were dissolved in DMSO at 10^−2 mol/L, diluted with KRP buffer containing 1 mg/mL of bovine serum albumin and tested in the bottom compartment at a final concentration ranging from 10^−12 to 10^−7 mol/L. For an accurate comparison, the results of the different analogues were expressed as chemotactic index, which is the ratio of the distance of migration towards tested attractant and the distance towards the buffer. Migration in the presence of buffer was only […] (mean±SEM). Maximum migration for CHO-Met-Leu-Phe-OH (FMLP) occurred at 10^−8 mol/L and was […] in these experiments (chemotactic index 1.94±0.03). CD4 receptor binding for the test analogues was confirmed by blocking their chemotactic effects using low concentrations (0.1-0.2 mg/mL) of OKT4, a specific monoclonal antibody for CD4 molecules. In this test, migration response was not influenced by OKT4.

monocytes = conditions: cited from earlier work

CCC(O[C@@H]1O[C@H](CO[C@@H]2O[C@H](CO)[C@@H](O)[C@H](O)[C@H]2O)[C@@H](O)[C@H](O)[C@H]1O)c1ccccc1 (mixture of isomers) [Compound (I-4), (1 RS)-1-phenylpropyl 6-O-(β-D-glucopyranosyl)-β-D-glucopyranoside]
−log[A] (concentration of maximum chemotactic index) (Blood mononuclear cells): 6
Chemotactic index (maximum value) (Blood mononuclear cells): 0.75

CC(C)(C)C(O[C@@H]1O[C@H](CO[C@@H]2O[C@H](CO)[C@@H](O)[C@H](O)[C@H]2O)[C@@H](O)[C@H](O)[C@H]1O)c1ccccc1 (mixture of isomers) [Compound (I-5), (1RS) 1-phenyl-2,2-dimethylpropyl-6-O-(β-D-glucopyranosyl)-β-D-glucopyranoside]
−log[A] (concentration of maximum chemotactic index) (Blood mononuclear cells): 9
Chemotactic index (maximum value) (Blood mononuclear cells): 0.84

N#C[C@H](O[C@@H]1O[C@H](CO[C@@H]2O[C@H](CO)[C@@H](O)[C@H](O)[C@H]2O)[C@@H](O)[C@H](O)[C@H]1O)c1ccccc1 [Amygdalin, amygdalin]
Chemotactic profile compared with peptide T (monocytes): chemotactic profile similar to that of peptide T
−log[A] (concentration of maximum chemotactic index) (Blood mononuclear cells): 10
Chemotactic index (maximum value) (Blood mononuclear cells): 0.63

COc1ccc(CO[C@@H]2O[C@H](CO[C@@H]3O[C@H](CO)[C@@H](O)[C@H](O)[C@H]3O)[C@@H](O)[C@H](O)[C@H]2O)cc1 [Compound (I-1), 4-methoxybenzyl 6-O-(β-D-glucopyranosyl)-β-D-Glucopyranoside]
−log[A] (concentration of maximum chemotactic index) (Blood mononuclear cells): 10
Chemotactic index (maximum value) (Blood mononuclear cells): 0.87

OC[C@H]1O[C@@H](OC[C@H]2O[C@@H](OCc3ccccc3)[C@H](O)[C@@H](O)[C@@H]2O)[C@H](O)[C@@H](O)[C@@H]1O [Compound (I-2), benzyl 6-O-(β-D-glucopyranosyl)4-D-glycopyranoside]
−log[A] (concentration of maximum chemotactic index) (Blood mononuclear cells): 8
Chemotactic index (maximum value) (Blood mononuclear cells): 0.76

CC(O[C@@H]1O[C@H](CO[C@@H]2O[C@H](CO)[C@@H](O)[C@H](O)[C@H]2O)[C@@H](O)[C@H](O)[C@H]1O)c1ccccc1 (stereo partly drawn) [Compound (I-3), (1 RS)-1-phenylethyl-6-O-(β-D-glucopyranosyl)-β-D-glucopyranoside]
−log[A] (concentration of maximum chemotactic index) (Blood mononuclear cells): 8
Chemotactic index (maximum value) (Blood mononuclear cells): 0.77

O=C(O)[C@H](O[C@@H]1O[C@H](CO[C@@H]2O[C@H](CO)[C@@H](O)[C@H](O)[C@H]2O)[C@@H](O)[C@H](O)[C@H]1O)c1ccccc1 [Compound (I-6), (2R) (6-O-(β-D-glucopyranosyl)-β-D-glucopyranosyloxy)-phenylacetic acid]
−log[A] (concentration of maximum chemotactic index) (Blood mononuclear cells): 9
Chemotactic index (maximum value) (Blood mononuclear cells): 0.85

NC(=O)[C@H](O[C@@H]1O[C@H](CO[C@@H]2O[C@H](CO)[C@@H](O)[C@H](O)[C@H]2O)[C@@H](O)[C@H](O)[C@H]1O)c1ccccc1 [Compound (I-7)]
−log[A] (concentration of maximum chemotactic index) (Blood mononuclear cells): 7
Chemotactic index (maximum value) (Blood mononuclear cells): 0.84

C#CC(O[C@@H]1O[C@H](CO[C@@H]2O[C@H](CO)[C@@H](O)[C@H](O)[C@H]2O)[C@@H](O)[C@H](O)[C@H]1O)c1ccccc1 (stereo partly drawn) [Compound (I-8), (1 RS) 1-phenyl-2-propynyl-6-O-(β-D-Glucopyranosyl)-β-D-glucopyranoside]
−log[A] (concentration of maximum chemotactic index) (Blood mononuclear cells): 6
Chemotactic index (maximum value) (Blood mononuclear cells): 0.79

OC[C@H]1O[C@@H](OC[C@H]2O[C@@H](OCc3ccccc3Cl)[C@H](O)[C@@H](O)[C@@H]2O)[C@H](O)[C@@H](O)[C@@H]1O [Compound (I-10), 2-chlorobenzyl 6-O-(β-D-gluconyranosyl)-β-D-Glucopyranoside]
−log[A] (concentration of maximum chemotactic index) (Blood mononuclear cells): 10
Chemotactic index (maximum value) (Blood mononuclear cells): 0.94

COc1ccc(CO[C@@H]2O[C@H](CO[C@@H]3O[C@H](CO)[C@@H](O)[C@H](O)[C@H]3O)[C@@H](O)[C@H](O)[C@H]2O)c(OC)c1 [Compound (I-11), 2.4-dimethoxybenzyl 6-O-(β-D-glucopyranosyl)-β-D-glucopyranoside]
−log[A] (concentration of maximum chemotactic index) (Blood mononuclear cells): 10
Chemotactic index (maximum value) (Blood mononuclear cells): 0.84

OC[C@H]1O[C@@H](OC[C@H]2O[C@@H](OCCc3ccccc3)[C@H](O)[C@@H](O)[C@@H]2O)[C@H](O)[C@@H](O)[C@@H]1O [Compound (I-17), 2-phenylethyl 6-O-(β-D-glucopyranosyl)-β-D-glucopyranoside]
−log[A] (concentration of maximum chemotactic index) (Blood mononuclear cells): 9
Chemotactic index (maximum value) (Blood mononuclear cells): 0.70

CHO-Met-Leu-Phe-OH [FMLP, reference compound]
Concentration of maximum migration (Blood mononuclear cells): 10^−8 mol/L
Chemotactic index (Blood mononuclear cells; at maximum migration, 10^−8 mol/L): 1.94±0.03
